Biological target: T1, phospho p-38 alpha kinase (Homo sapiens, UniProt Q16539)
T1 construct: purchased Panvera
Test: P-38 alpha kinase assay (spectrophotometric, pyruvate kinase/lactate dehydrogenase coupled)
Format: biochemical
Settings: Table 5; for IC50: assay not named, read-out: uM
Experimental: In this assay, the oxidation of NADH was continuously measured spectrophometrically. […] The reaction was initiated by adding ATP. The absorption at 340 nm was monitored continuously for up to 4 hours at 30° C. on Polarstar Optima plate reader (BMG). The kinase activity (reaction rate) was calculated from the slope at the time frame from 1.5 h to 2 h.
For inhibition determinations, test compounds were incubated with the reaction mixture for ˜5 min before adding ATP to start the reaction. […] IC50 values were calculated from a series of % inhibition values determined at a range of concentrations of each inhibitor using Prism to process the data and fit inhibition curves. Generally, the rates obtained at the time frame of 1.5 h to 2 h were used for these calculations.

T1 sequence (Q16539 whole entry): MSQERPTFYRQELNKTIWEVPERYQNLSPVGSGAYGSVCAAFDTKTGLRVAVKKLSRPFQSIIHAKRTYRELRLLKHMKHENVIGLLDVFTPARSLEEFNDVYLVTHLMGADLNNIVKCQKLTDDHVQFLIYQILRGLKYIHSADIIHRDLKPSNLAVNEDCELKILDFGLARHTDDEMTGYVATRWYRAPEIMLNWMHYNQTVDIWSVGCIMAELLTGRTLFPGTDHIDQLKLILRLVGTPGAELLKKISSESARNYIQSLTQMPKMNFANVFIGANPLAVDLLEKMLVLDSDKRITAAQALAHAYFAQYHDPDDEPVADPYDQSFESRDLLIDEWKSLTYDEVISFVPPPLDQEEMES

IC50 [µM]	Compound	further results
	CC(C)(C)c1cc(NC(=O)Nc2cccc3ccccc23)n(-c2cccc(CO)c2)n1 [Example 367, 1-{3-t-butyl-1-[3-(hydroxymethyl)phenyl]-1H-pyrazol-5-yl)-3-(naphthalen-1-yl)-urea]	% @ concentration, uM (@ 10 uM): 85% @ 10
1.46	CC(C)(C)c1cc(NC(=O)Nc2cccc(Cl)c2Cl)n(-c2cccc(CO)c2)n1 [Example 372, 1-[3-t-butyl-1-(3-hydroxymethyl-phenyl)-1H-pyrazol-5-yl]-3-(2,3-dichlorophenyl)-urea]	
0.037	CC(C)(C)c1cc(NC(=O)Nc2cccc(Cl)c2Cl)n(-c2cccc(C(=O)O)c2)n1 [Example 374, 3-{3-t-butyl-5-[3-(2,3-dichlorophenyl)ureido]-1H-pyrazol-1-yl}benzoic acid]	
0.48	CC(C)(C)c1cc(NC(=O)Nc2ccc(Cl)cc2)n(-c2cccc(CO)c2)n1 [Example 376]	
0.4	CC(C)(C)c1cc(NC(=O)Nc2ccc(Cl)cc2)n(-c2cccc(CN3C(=O)NC(=O)C3=O)c2)n1 [Example 378, 1-{3-t-butyl-2-{3-[(2,4,5-trioxoimidazolidin-1-yl)methyl]phenyl}-1H-pyrazol-3-yl}-3-(4-chlorophenyl)urea]	
2	CC(C)(C)c1cc(NC(=O)Nc2ccc(Cl)cc2)n(-c2cccc(CN3C(=O)C(=O)NS3(=O)=O)c2)n1 [Example 380, 1-{5-t-butyl-2-[3-(1,1,3,4-tetraoxo-1λ^6-[1,2,5]thiadiazolidin-2-ylmethyl)phenyl]-2H-pyrazol-3-yl}-3-(4-chlorophenyl)urea]	
0.88	CC(C)(C)c1cc(NC(=O)Nc2cccc3ccccc23)n(-c2cccc(CNC(=O)N3CCOCC3)c2)n1 [Example 382, 1-(3-t-butyl-1-{3-[(morpholine-4-carboxamido)methyl]phenyl}-1H-pyrazol-5-yl)-3-(naphthalen-1-yl)urea]	
0.1	CC(C)(C)c1cc(NC(=O)Nc2cccc3ccccc23)n(-c2cccc(CNC(=O)N3CCCC3)c2)n1 [Example 383, 1-(3-t-butyl-1-{3-[(pyrrolidine-1-carboxamido)methyl]phenyl}-1H-pyrazol-5-yl)-3-(naphthalen-1-yl)urea]	
	CN(C)C(=O)NCc1cccc(-n2nc(C(C)(C)C)cc2NC(=O)Nc2cccc3ccccc23)c1 [Example 384, 1-{3-t-butyl-1-[3-(3,3-dimethylureidomethyl)phenyl]-1H-pyrazol-5-yl}-3-(naphthalen 1-yl)urea]	% @ concentration, uM (@ 1 uM): 72%; % @ concentration, uM (@ 10 uM): 96%
0.03	CC(C)(C)c1cc(NC(=O)Nc2ccc(Cl)cc2)n(-c2cccc(CNC(=O)N3CCCCC3)c2)n1 [Example 385, 1-(3-t-butyl-1-{3-[(piperidine-1-carboxamido)methyl]phenyl}-1H-pyrazol-5-yl)-3-(4-chlorophenyl)urea]	
0.114	CC(C)(C)c1cc(NC(=O)Nc2ccc(Cl)cc2)n(-c2cccc(CNC(=O)N3CCOCC3)c2)n1 [Example 386, 1-(3-t-butyl-1-{3-[(morpholine-4-carboxamido)methyl]phenyl}-1H-pyrazol-5-yl)-3-(4-chlorophenyl)urea]	
4.45	CC(C)(C)c1cc(NC(=O)Nc2ccc(Cl)cc2)n(-c2cccc(CNC(=O)N3CCCC3)c2)n1 [Example 387, 1-(3-r-butyl-1-{3-[(pyrrolidine-1-carboxamido)methyl]phenyl}-1H-pyrazol-5-yl)-3-(4-chlorophenyl)urea]	
1.65	CN(C)C(=O)NCc1cccc(-n2nc(C(C)(C)C)cc2NC(=O)Nc2ccc(Cl)cc2)c1 [Example 388, 1-{3-t-butyl-1-[3-(3,3-dimethylureidomethyl)phenyl]-1H-pyrazol-5-yl}-3-(4-chlorophenyl)urea]	
0.09	CN1CCN(C(=O)NCc2cccc(-n3nc(C(C)(C)C)cc3NC(=O)Nc3cccc4ccccc34)c2)CC1 [Example 389, 1-{3-t-butyl-1-(3-[(1-methylpiperazine-4-carboxamido)methyl]phenyl}-1H-pyrazol-5-yl)-3-(naphthalen 1-yl)urea]	
	CN1CCN(C(=O)NCc2cccc(-n3nc(C(C)(C)C)cc3NC(=O)Nc3ccc(Cl)cc3)c2)CC1 [Example 390, 1-{3-t-butyl-1-(3-[(1-methylpiperazine-4-carboxamido)methyl]phenyl}-1H-pyrazol-5-yl)-3-(4-chlorophenyl)urea]	% @ concentration, uM (@ 0.1 uM): 24%; % @ concentration, uM (@ 1 uM): 63%
0.91	CC(C)(C)c1cc(NC(=O)Nc2ccc(Cl)cc2)n(-c2cccc(CN3C(=O)C(=O)N(c4ccccc4)C3=O)c2)n1 [Example 391, 1-{3-t-butyl-1-(3-[(2,4,5-trioxo-3-phenylimidazolidin-1-yl)methyl]phenyl)-1H-pyrazol-5-yl}-3-(4-chlorophenyl)urea]	
	CC(C)(C)c1cc(NC(=O)Nc2ccc(Cl)cc2)n(-c2cccc(Cn3c(=O)[nH]n(-c4ccccc4)c3=O)c2)n1 [Example 392, 1-(3-t-butyl-1-{3-[(3,5-dioxo-1-phenyl-1,2,4-triazolidin-4-yl)methyl]phenyl}-1H-pyrazol-5-yl)-3-(4-chlorophenyl)urea]	% @ concentration, uM (@ 0.1 uM): 75%; % @ concentration, uM (@ 1 uM): 86%

IC50 [µM]	Compound	further results
0.4	CCOC(=O)c1cccc(-n2nc(C(C)(C)C)cc2NC(=O)Nc2ccc(F)cc2)c1 [Example 393, ethyl 3-{3-t-butyl-5-[3-(4-fluorophenyl)ureido)-1H-pyrazol-1-yl}benzoate]	
0.056	CC(C)(C)c1cc(NC(=O)Nc2ccc(F)cc2)n(-c2cccc(Cn3c(=O)[nH]n(-c4ccccc4)c3=O)c2)n1 [Example 395, 1-{3-t-butyl-1-(3-[(3,5-dioxo-1-phenyl-1,2,4-triazolidin-4-yl)methyl]phenyl}-1H-pyrazol-5-yl)-3-(4-fluorophenyl)urea]	
	CC(C)(C)c1cc(NC(=O)Nc2cccc(Cl)c2Cl)n(-c2cccc(Cn3c(=O)[nH]n(-c4ccccc4)c3=O)c2)n1 [Example 396, 1-(3-t-butyl-1-{3-[(3,5-dioxo-1-phenyl-1,2,4-triazolidin-4-yl)methyl]phenyl}-1H-pyrazol-5-yl)-3-(2,3-dichlorophenyl)urea]	% @ concentration, uM (@ 0.1 uM): 3%; % @ concentration, uM (@ 1 uM): 56%
0.04	CCOC(=O)Cc1cccc(-n2nc(C(C)(C)C)cc2NC(=O)Nc2ccccc2)c1 [Example 397, ethyl 2-{3-[3-t-butyl-5-(3-phenylureido)-1H-pyrazol-1-yl]phenyl}acetate]	
	CC(C)(C)c1cc(NC(=O)Nc2ccc(Cl)cc2)n(-c2cccc(CC(=O)O)c2)n1 [Example 399, 2-(3-{3-t-butyl-5-[3-(4-chlorophenyl)ureido]-1H-pyrazol-1-yl-}phenyl)acetic acid]	% @ concentration, uM (@ 0.1 uM): 21%; % @ concentration, uM (@ 1 uM): 74%
0.0134	CC(C)(C)c1cc(NC(=O)Nc2cccc3ccccc23)n(-c2ccc3c(c2)CNCC3)n1 [Example 406, 1-[3-t-butyl-1-(1,2,3,4-tetrahydroisoquinolin-7-yl)-1H-pyrazol-5-yl]-3-(naphthalen-1-yl)urea]	
0.0103	CC(C)(C)c1cc(NC(=O)Nc2ccc(Cl)cc2)n(-c2ccc3c(c2)CNCC3)n1 [Example 407, 1-[3-t-butyl-1-(1,2,3,4-tetrahydroisoquinolin-7-yl)-1H-pyrazol-5-yl]-3-(4-chlorophenyl)urea]	
0.116	Cn1[nH]c(=O)n(Cc2cccc(-n3nc(C(C)(C)C)cc3NC(=O)Nc3cccc(Cl)c3Cl)c2)c1=O [Example 408, 1-{5-t-butyl-2-[3-(1-methyl-3,5-dioxo-[1,2,4)triazolidin-4-ylmethyl)-phenyl]-2H-pyrazol-3-yl}-3-(2,3-dichloro-phenyl)-urea]	
0.008	CC(C)c1cc(NC(=O)Nc2cccc3ccccc23)n(-c2ccc(C(O)C(F)(F)F)cc2)n1 (centres unmarked) [Example 411, 1-(1-(4-(2,2,2-trifluoro-1-hydroxyethyl)phenyl)-3-isopropyl-1H-pyrazol-5-yl)-3-(naphthalen-1-yl)urea]	
	CC(C)(C)c1cc(NC(=O)Nc2cccc3ccccc23)n(-c2ccc(O)cc2)n1 [Example 415, 1-(3-t-butyl-1-(4-hydroxyphenyl)-1H-pyrazol-5-yl)-3-(naphthalen-1-yl)urea]	% @ concentration, uM (@ 0.1 uM): 28%; % @ concentration, uM (@ 1 uM): 69%
	COC(=O)COc1ccc(-n2nc(C(C)(C)C)cc2NC(=O)Nc2cccc3ccccc23)cc1 [Example 416, 1-(3-t-butyl-1-(4-(carbomethoxymethyl)oxyphenyl)-1H-pyrazol-5-yl)-3-(naphthalen-1-yl)urea]	% @ concentration, uM (@ 0.1 uM): 67%; % @ concentration, uM (@ 1 uM): 83%
0.075	CC(C)(C)c1cc(NC(=O)Nc2ccc(Cl)cc2)n(-c2ccc(OCc3ccccc3)cc2)n1 [Example 418, 1-(3-t-butyl-1-(4-(benzyloxy)phenyl)-1H-pyrazol-5-yl)-3-(4-chlorophenyl)urea]	
0.0147	CC(C)(C)c1cc(N)n(-c2ccc(O)cc2)n1 [Example 420, 4-(3-t-butyl-5-amino-1H-pyrazol-1-yl)phenol]	
0.0147	CC(C)(C)c1cc(NC(=O)Nc2ccc(Cl)cc2)n(-c2ccc(O)cc2)n1 [Example 421, 1-(3-t-butyl-1-(4 hydroxyphenyl)-1H-pyrazol-5-yl)-3-(4-chlorophenyl)urea]	
0.013	CCOC(=O)CCc1cccc(-n2nc(C(F)(F)F)cc2NC(=O)Nc2ccc(Cl)cc2)c1 [Example 426, 3-{3-(5-[3-(4-chloro-phenyl)-ureido]-3-trifluoromethyl-pyrazol-1-yl}-phenyl)-propionic acid ethyl ester]	
0.819	O=C(O)CCc1cccc(-n2nc(C(F)(F)F)cc2NC(=O)Nc2ccc(Cl)cc2)c1 [Example 427, 3-(3-(5-(3-(4 chlorophenyl)ureido)-3-(trifluoromethyl)-1H-pyrazol-1-yl)phenyl)propanoic acid]	
0.14	CCOC(=O)CCc1cccc(-n2nc(C)cc2NC(=O)Nc2ccc(Cl)cc2)c1 [Example 428, 3-(3-{5-[3-(4-chloro-phenyl)-ureido)-3-methyl-pyrazol-1-yl}-phenyl)-propionic acid ethyl ester]	

Reference: patent US20090312349A1, “ANTI-INFLAMMATORY MEDICAMENTS” (priority 2004, published 2009)
